Measurements: patent US20130116219A1, “ANTIMICROBIAL CARBOLINE COMPOUNDS” (ALCON RESEARCH, LTD., priority 2011, published 2013)

Test system: Ad5
Assay: Ad5 genome replication assay (cell-based QPCR) in A549 cells
Conditions: Human adenovirus sp., A549, 72 h, read-out: Ad5 qPCR EC50 (μM)
Method: Compounds of the present invention were tested for potency against Ad5 in an Ad5 genome replication assay, a cell-based QPCR assay of Ad5 genome replication in A549 cells, a human lung carcinoma cell line. Serotype of human Ad5, used in this replication assay can also replicate in a NZW rabbit model of adenoviral ocular keratitis.
EC50 values (μM) for inhibition of adenoviral replication were determined by QPCR. Briefly, 10,000 cultured A549 cells were inoculated with 25,000 pfu/well for 3 hrs in 2% FBS F12-K A549 culture media. Following inoculation, A549 cells were treated with log unit dilutions of compound of Formula I (˜10 μM thru˜10 pM) in 10% FBS F12-K culture media with 0.3% DMSO for an additional 3 days. Cell viability was assessed with Alamar Blue (10 μl/well for 2 hrs; fluorescence Ex353; Em595 nm). Plates were washed 3 times with 125 μl PBS, cell lysates were prepared for QPCR analysis using Cells to SNP kit (Life Technologies). Ad5 genome levels per cell were determined with RNaseP and Ad5 hexon Taqman Assays (Life Technologies). EC50, the concentration that inhibited Ad5 genome replication formation by 50%, was estimated from plots of Ad5 genomes/cell vs. compound concentration.

SMILES	EC50
CC(C)CC1c2[nH]c3ccc(Cl)cc3c2CCN1C(=O)CCN1CCCCC1 (stereo not shown) [Compound 3]	> 1 µM
CC(C)CC1c2[nH]c3ccc(Cl)cc3c2CCN1C(=O)CCc1ccco1 (stereo not shown) [Compound 58]	< 0.1 µM
CC(C)CC1c2[nH]c3ccc(Cl)cc3c2CCN1C(=O)CNCc1ccco1 (stereo not shown) [Compound 89]	> 1 µM
CC(C)CC1c2[nH]c3ccc(Cl)cc3c2CCN1C(=O)C1(F)CN(CC(C)C)C1 (stereo not shown) [Compound 103, (6-chloro-1-isobutyl-3,4-dihydro-1H-pyrido[3,4-b]indol-2(9H)-yl)(3-fluoro-1-isobutylazetidin-3-yl)methanone]	< 0.1 µM
Cc1ccc(C2c3[nH]c4ccc(Cl)cc4c3CCN2C(=O)CCN2CCC(F)(F)CC2)cc1 (stereo not shown) [Compound 4]	0.1 to 1 µM
CC(C)CC1c2[nH]c3ccc(Cl)cc3c2CCN1C(=O)CN1CCC(F)(F)CC1 (stereo not shown) [Compound 7]	0.1 to 1 µM
CC(C)CC1c2[nH]c3ccc(Cl)cc3c2CCN1Cc1ccco1 (stereo not shown) [Compound 88]	0.1 to 1 µM
CC(C)CC1c2[nH]c3ccc(Cl)cc3c2CCN1C(=O)CN1CC(F)C1 (stereo not shown) [Compound 41]	0.1 to 1 µM
CC(C)C[C@H]1c2[nH]c3ccc(Cl)cc3c2CCN1C(=O)C1CN(CC(F)F)C1 [Compound 54]	0.1 to 1 µM
CC(C)C[C@H]1c2[nH]c3ccc(Cl)cc3c2CCN1C(=O)CNCCC(F)(F)F [Compound 108, (S)-1-(6-chloro-1-isobutyl-3,4-dihydro-1H-pyrido[3,4-b]indol-2(9H)-yl)-2-(3,3,3-trifluoropropylamino)ethanone]	< 0.1 µM
CC(C)CC1c2[nH]c3ccc(Cl)cc3c2CCN1C(=O)CCN1CCC(C)CC1 (stereo not shown) [Compound 15]	> 1 µM
CC(C)(C)CC1c2[nH]c3ccc(Cl)cc3c2CCN1C(=O)CCN1CCC(C(F)F)CC1 (stereo not shown) [Compound 32]	> 1 µM
CC(C)CC1c2[nH]c3ccc(Cl)cc3c2CCN1C(=O)OCCN1CCC(C(F)F)CC1 (stereo not shown) [Compound 22]	> 1 µM
CC(C)CC1c2[nH]c3ccc(Cl)cc3c2CCN1C(=O)CN(C)c1ccccc1 (stereo not shown) [Compound 74]	0.1 to 1 µM
CC(C)CC1c2[nH]c3ccc(Cl)cc3c2CCN1C(=O)CCC1CCN(CC(F)F)CC1 (stereo not shown) [Compound 46]	0.1 to 1 µM
CC(C)CC1c2[nH]c3ccc(Cl)cc3c2CCN1CC1CC1 (stereo not shown) [Compound 96]	0.1 to 1 µM
CC(C)CC1c2[nH]c3ccc(Cl)cc3c2CCN1C(=O)COC1CCCCC1 (stereo not shown) [Compound 68]	0.1 to 1 µM
CC(C)CC1c2[nH]c3ccc(Cl)cc3c2CCN1CCCc1ccccc1 (stereo not shown) [Compound 109]	0.1 to 1 µM
CC(C)CC1c2[nH]c3ccc(Cl)cc3c2CCN1C(=O)CC(O)c1ccccc1 (stereo not shown) [Compound 48]	0.1 to 1 µM
